Patent publication US11634443B2, “Treprostinil prodrugs” (United Therapeutics Corporation, priority 2019, dated 2023)
Like-named read-outs stand apart in the source and are kept apart here.

Assays:
[1] = cited from earlier work
[2] = Stability and formation of treprostinil in human cryopreserved hepatocytes
[3] = Stability and formation of treprostinil in rat cryopreserved hepatocytes
[4] = Stability and formation of treprostinil in dog cryopreserved hepatocytes
[5] = molecular target: T1, prostaglandin I2 (PGI2) receptor (IP) (Homo sapiens, UniProt P43119); experiment: IP receptor cAMP assay (agonist mode); format: cell-based; conditions: Table 24; relative to treprostinil EC50 values; * partial agonists or ambiguous dose-response curves; image character = too high to realistically calculate
T1 construct: expressed in transfected cells; host or cells: CHO-K1
T1 sequence (P43119 whole entry): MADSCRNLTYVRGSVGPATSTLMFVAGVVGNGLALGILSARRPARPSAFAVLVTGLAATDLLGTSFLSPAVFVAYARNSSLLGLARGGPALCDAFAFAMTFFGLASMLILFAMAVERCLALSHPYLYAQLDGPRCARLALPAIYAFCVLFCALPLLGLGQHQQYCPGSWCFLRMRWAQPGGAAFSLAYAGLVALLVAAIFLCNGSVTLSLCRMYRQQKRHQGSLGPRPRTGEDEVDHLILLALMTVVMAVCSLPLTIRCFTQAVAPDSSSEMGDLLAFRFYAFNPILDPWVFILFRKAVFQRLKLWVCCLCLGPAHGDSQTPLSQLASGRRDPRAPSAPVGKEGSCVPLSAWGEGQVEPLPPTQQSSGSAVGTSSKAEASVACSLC
Experimental: (§1) Gas Cyclic AMP (cAMP) Assay: In agonist mode testing, cells were seeded in a 384-well plate at an appropriate density and then were treated with compounds and incubated at 37° C. for 20 minutes. The reaction was terminated by sequentially adding sequentially adding trFluor™ Eu-labeled cAMP and trFluor™ 650-labeled anti-cAMP antibody in lysis buffer. […] All testing wells contained 0.1% DMSO in the final concentrations.
(§2) Data in graphs are represented in Mean±SD. Dose-dependent responses were fitted with sigmoidal dose-response curves allowing variable slopes using GraphPad Prism version 6 (Graphpad Prism).

[6] = molecular target: T2, prostaglandin E2 (PGE2) receptor 2 (EP2) (Homo sapiens, UniProt P43116); experiment: EP2 receptor cAMP assay (agonist mode); format: cell-based; conditions: Table 24; relative to treprostinil EC50 values; * partial agonists or ambiguous dose-response curves; image character = too high to realistically calculate
T2 construct: expressed in transfected cells; host or cells: HEK293T
T2 sequence (P43116 whole entry): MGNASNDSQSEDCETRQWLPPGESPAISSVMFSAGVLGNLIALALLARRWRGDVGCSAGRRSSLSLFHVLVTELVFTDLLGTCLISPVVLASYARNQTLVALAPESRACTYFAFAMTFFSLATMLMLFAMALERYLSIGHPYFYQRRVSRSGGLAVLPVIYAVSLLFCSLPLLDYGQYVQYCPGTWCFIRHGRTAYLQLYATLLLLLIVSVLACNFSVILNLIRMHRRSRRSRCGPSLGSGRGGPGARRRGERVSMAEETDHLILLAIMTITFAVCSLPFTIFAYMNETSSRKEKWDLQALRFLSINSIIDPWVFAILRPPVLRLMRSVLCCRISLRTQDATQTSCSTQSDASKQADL
Experimental: as §1, §2

[7] = molecular target: T3, prostaglandin D2 (PGD2) receptor 1 (DP1) (Homo sapiens, UniProt Q13258); experiment: DP1 receptor cAMP assay (agonist mode); format: cell-based; conditions: Table 24; relative to treprostinil EC50 values; * partial agonists or ambiguous dose-response curves; image character = too high to realistically calculate
T3 construct: expressed in transfected cells; host or cells: HEK293T
T3 sequence (Q13258 1-359): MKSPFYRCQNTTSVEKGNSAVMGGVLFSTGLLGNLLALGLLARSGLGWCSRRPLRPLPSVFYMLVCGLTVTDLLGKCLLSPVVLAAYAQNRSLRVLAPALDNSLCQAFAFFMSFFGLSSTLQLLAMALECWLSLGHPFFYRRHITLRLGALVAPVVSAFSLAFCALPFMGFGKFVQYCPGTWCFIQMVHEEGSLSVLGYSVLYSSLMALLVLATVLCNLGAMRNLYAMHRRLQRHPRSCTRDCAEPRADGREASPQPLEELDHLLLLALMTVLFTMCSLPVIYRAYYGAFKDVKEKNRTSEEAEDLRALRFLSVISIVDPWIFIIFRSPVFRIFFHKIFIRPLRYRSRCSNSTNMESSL

PGE2 receptor 1 (EP1) = molecular target: T4, PGE2 receptor 1 (EP1) (Homo sapiens, UniProt P34995); experiment: EP1 receptor calcium assay (agonist mode); format: cell-based; conditions: Table 24; relative to treprostinil EC50 values; * partial agonists or ambiguous dose-response curves; image character = too high to realistically calculate
T4 construct: expressed in transfected cells; host or cells: HEK293T
T4 sequence (P34995 1-402): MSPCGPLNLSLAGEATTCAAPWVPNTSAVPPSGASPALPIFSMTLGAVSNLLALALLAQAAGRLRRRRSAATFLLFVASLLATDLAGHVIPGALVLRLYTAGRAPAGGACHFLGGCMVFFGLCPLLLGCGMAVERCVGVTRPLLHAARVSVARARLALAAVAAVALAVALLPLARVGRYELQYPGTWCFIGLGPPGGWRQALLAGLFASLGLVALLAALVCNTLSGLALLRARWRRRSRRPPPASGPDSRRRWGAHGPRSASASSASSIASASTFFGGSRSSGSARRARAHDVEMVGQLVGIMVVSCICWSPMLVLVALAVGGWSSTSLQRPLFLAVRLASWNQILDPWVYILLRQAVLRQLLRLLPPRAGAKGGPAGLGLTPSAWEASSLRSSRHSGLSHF
Experimental: Assay Buffer: • EP1 Calcium and DP1 cAMP Assays: HBSS plus 20 mM HEPES • EP2 and IP1 cAMP Assays: 1 mM IBMX in HBSS plus 20 mM HEPES
Cells were thawed from frozen cells and resuspended in assay buffer at desired concentrations. cAMP or Calcium assays were performed according to the manufacturer's protocol using Multiscreen™ TR-FRET cAMP 1.0 No Wash Assay Kit or Multiscreen™ Calcium 1.0 No Wash Kit.
Calcium Assay: Cells were seeded in a 384-well plate at an appropriate density. The calcium assay was conducted according to the manufacturer's protocols (Multiscreen Calcium 1.0 No Wash Assay Kit). The calcium dye loading buffer was added to the cells and incubated for 1 hour at 37° C. For agonist mode, cells were injected with Iloprost control agonist or test compound by FLIPR and calcium mobilization was monitored for 180 seconds with compound injected into the wells at the 19th second. Fluorescent emissions were read at 525 nm with excitation at 490 nm in a FLIPR 384 instrument (Molecular Devices).
Calcium Assay: Calcium assay results are expressed as “RFU” as defined in figure below. Data are represented in Mean±SEM. Dose-response curves were fitted using “Sigmoidal dose-response (variable slope)” function in GraphPad Prism 6. EC50 values were calculated based on the fitted curves.
Prostaglandin receptor activity assessments with treprostinil and treprostinil analogues have been conducted, and a historical, positive control agonist for these receptors, iloprost (for IP, EP2 and EP1) or PGD2 (for DP1), was also included. These studies used cell lines overexpressing either human IP, EP2 or DP1, or EP1 receptors, and following incubation with varying concentrations of compounds, cAMP levels were measured using Fluorescence Resonance Energy Transfer (FRET). The 665/620 (acceptor/donor emission signals) ratio is inversely proportional to the concentration of cAMP.

[8] = both, human, 1 μM, pH 7.4
Experimental: (§3) Mixed-gender human liver microsomes, male Sprague-Dawley rat liver microsomes, and male Beagle dog liver microsomes were purchased from XenoTech. The reaction mixture, minus NADPH, was prepared as described below. […] An aliquot of the reaction mixture (without cofactor) was equilibrated in a shaking water bath at 37° C. for 5 minutes. The reaction was initiated by the addition of cofactor, and the mixture was incubated in a shaking water bath at 37° C. Aliquots (200 μL) were withdrawn at 0, 10, 20, 30, and 60 minutes. Test article samples were immediately combined with 400 μL of ice-cold acetonitrile (ACN) to terminate the reaction. […] The samples were then mixed and centrifuged to precipitate proteins. Aliquots of the supernatant were removed, diluted 1:1 into distilled water containing internal standard, and analyzed by LC-MS/MS against calibration standards prepared in a matched matrix. All samples were analyzed for the dosed prodrugs as well as the drug, treprostinil. The test article concentration was compared to the concentration at time 0 to determine the percent of test article remaining at each time point. Half-lives and clearance were calculated using GraphPad software, fitting to a single-phase exponential decay equation.
Liver Microsomes 0.5 mg/mL
Potassium Phosphate, pH 7.4 100 mM

[9] = male, Sprague-Dawley, rat, 1 μM, pH 7.4
Experimental: as §3
Liver Microsomes 0.5 mg/mL
Potassium Phosphate, pH 7.4 100 mM

[10] = male, Beagle, dog, 1 μM, pH 7.4
Experimental: as §3
Liver Microsomes 0.5 mg/mL
Potassium Phosphate, pH 7.4 100 mM

[11] = human, 1 μM
Experimental: For each of the test articles, 495 μL of skin homogenate was added to triplicate centrifuge tubes. To each tube, 5 μL of a 100 μM solution of test article was added, for a final test article dosing concentration of 1 μM. The tubes were placed onto a Thermomixer and maintained at 37° C. with gentle shaking for the duration of the experiment. At each time point (0, 30, 60, and 120 minutes), a 100 μL aliquot was removed from each tube and combined with 200 μL of acetonitrile to stop the stability reaction. The tubes were mixed and centrifuged at 3000 rpm for 10 minutes. Aliquots of supernatant were removed and diluted 1:1 with distilled water containing internal standard (2 μM treprostinil-d4). Calibration standards for the treprostinil analysis were prepared for each test article in a surrogate matrix (supernatant from a mixture of 1:2 human plasma:acetonitrile), at concentrations ranging from 1 μM to 1 nM. Calibration standards were also diluted 1:1 with distilled water containing internal standard.

[12] = Stability and formation of treprostinil in rat liver microsomes; conditions: male, Sprague-Dawley, pH 7.4
Experimental: as §3
Liver Microsomes 0.5 mg/mL
Potassium Phosphate, pH 7.4 100 mM

[13] = Stability and formation of treprostinil in dog liver microsomes; conditions: male, Beagle, pH 7.4
Experimental: as §3
Liver Microsomes 0.5 mg/mL
Potassium Phosphate, pH 7.4 100 mM

[14] = Stability and formation of treprostinil in human liver microsomes; conditions: both, pH 7.4
Experimental: as §3
Liver Microsomes 0.5 mg/mL
Potassium Phosphate, pH 7.4 100 mM

## CCCCC[C@H](O)CC[C@@H]1[C@H]2Cc3cccc(OCC(=O)O)c3C[C@H]2C[C@H]1O [treprostinil, Treprostinil]
[1]; oral delivery, animal studies
  First-pass effect: approximately 60%
[1]; regardless of the route of administration
  Half-life once absorbed: about 1 hour

## CCCCC[C@@H](CC[C@@H]1[C@H]2Cc3cccc(OCC(=O)O)c3C[C@H]2C[C@H]1O)OC(C)=O [Prodrug XLIII, 2-(((1R,2R,3aS,9aS)-1-((S)-3-acetoxyoctyl)-2-hydroxy-2,3,3a,4,9,9a-hexahydro-1H-cyclopenta[b]naphthalen-5-yl)oxy)acetic acid]
[2]; both, human, 0 min, 1 μM, pH 7.4
  Treprostinil Concentration, 0 min: 0.00744 µM
[2]; both, human, 15 min, 1 μM, pH 7.4
  Treprostinil Concentration, 15 min: 0.573 µM
[2]; both, human, 30 min, 1 μM, pH 7.4
  Treprostinil Concentration, 30 min: 0.623 µM
[2]; both, human, 60 min, 1 μM, pH 7.4
  Treprostinil Concentration, 60 min: 0.54 µM
[2]; both, human, 120 min, 1 μM, pH 7.4
  Treprostinil Concentration, 120 min: 0.507 µM
[3]; male, Sprague-Dawley, rat, 0 min, 1 μM, pH 7.4
  Treprostinil Concentration, 0 min: 0.00292 µM
[3]; male, Sprague-Dawley, rat, 15 min, 1 μM, pH 7.4
  Treprostinil Concentration, 15 min: 0.161 µM
[3]; male, Sprague-Dawley, rat, 30 min, 1 μM, pH 7.4
  Treprostinil Concentration, 30 min: 0.266 µM
[3]; male, Sprague-Dawley, rat, 60 min, 1 μM, pH 7.4
  Treprostinil Concentration, 60 min: 0.397 µM
[3]; male, Sprague-Dawley, rat, 120 min, 1 μM, pH 7.4
  Treprostinil Concentration, 120 min: 0.503 µM
[4]; male, Beagle, dog, 0 min, 1 μM, pH 7.4
  Treprostinil Concentration, 0 min: 0.0381 µM
[4]; male, Beagle, dog, 15 min, 1 μM, pH 7.4
  Treprostinil Concentration, 15 min: 0.628 µM
[4]; male, Beagle, dog, 30 min, 1 μM, pH 7.4
  Treprostinil Concentration, 30 min: 0.543 µM
[4]; male, Beagle, dog, 60 min, 1 μM, pH 7.4
  Treprostinil Concentration, 60 min: 0.446 µM
[4]; male, Beagle, dog, 120 min, 1 μM, pH 7.4
  Treprostinil Concentration, 120 min: 0.4 µM
[5]
  Activity, IP Relative to Tre: 632x
[6]
  Activity, EP2 Relative to Tre: 461x
[7]
  Activity, DP1 Relative to Tre: 272x
PGE2 receptor 1 (EP1)
  Activity, EP1 Relative to Tre: 20x*
[8]; 0 min
  Treprostinil Concentration, 0 min: 0.883 µM
[8]; 15 min
  Treprostinil Concentration, 15 min: 0.681 µM
[8]; 30 min
  Treprostinil Concentration, 30 min: 0.602 µM
[8]; 60 min
  Treprostinil Concentration, 60 min: 0.513 µM
[8]; 120 min
  Treprostinil Concentration, 120 min: 0.341 µM
[9]; 0 min
  Treprostinil Concentration, 0 min: 0.035 µM
[9]; 15 min
  Treprostinil Concentration, 15 min: 0.0741 µM
[9]; 30 min
  Treprostinil Concentration, 30 min: 0.111 µM
[9]; 60 min
  Treprostinil Concentration, 60 min: 0.145 µM
[9]; 120 min
  Treprostinil Concentration, 120 min: 0.206 µM
[10]; 0 min
  Treprostinil Concentration, 0 min: 0.964 µM
[10]; 15 min
  Treprostinil Concentration, 15 min: 0.917 µM
[10]; 30 min
  Treprostinil Concentration, 30 min: 0.899 µM
[10]; 60 min
  Treprostinil Concentration, 60 min: 0.932 µM
[10]; 120 min
  Treprostinil Concentration, 120 min: 0.873 µM
[11]; 0 min
  Treprostinil Concentration, 0 min: 0.0034 µM
[11]; 30 min
  Treprostinil Concentration, 30 min: 0.382 µM
[11]; 60 min
  Treprostinil Concentration, 60 min: 0.583 µM
[11]; 120 min
  Treprostinil Concentration, 120 min: 0.839 µM

## CCCCC[C@@H](CC[C@@H]1[C@H]2Cc3cccc(OCC(=O)O)c3C[C@H]2C[C@H]1O)OC(=O)CC [Prodrug LV, treprostinil side chain propionic ester]
[2]
  Treprostinil Concentration, 0 min: 0.113 µM
  Treprostinil Concentration, 15 min: 0.725 µM
  Treprostinil Concentration, 30 min: 0.654 µM
  Treprostinil Concentration, 60 min: 0.589 µM
  Treprostinil Concentration, 120 min: 0.527 µM
[3]
  Treprostinil Concentration, 0 min: 0.0159 µM
  Treprostinil Concentration, 15 min: 0.506 µM
  Treprostinil Concentration, 30 min: 0.48 µM
  Treprostinil Concentration, 60 min: 0.424 µM
  Treprostinil Concentration, 120 min: 0.391 µM
[4]
  Treprostinil Concentration, 0 min: 0.124 µM
  Treprostinil Concentration, 15 min: 0.781 µM
  Treprostinil Concentration, 30 min: 0.698 µM
  Treprostinil Concentration, 60 min: 0.599 µM
  Treprostinil Concentration, 120 min: 0.53 µM
[5]
  Activity, IP Relative to Tre: 54x
[6]
  Activity, EP2 Relative to Tre: 50x
[7]
  Activity, DP1 Relative to Tre: 94x
PGE2 receptor 1 (EP1)
  Activity, EP1 Relative to Tre: 122x*

## C[C@]12CC[C@H]3[C@@H](CCC4=CC(=O)CC[C@@]43C)[C@@H]1CC[C@@H]2O [Testosterone, testosterone]
[2]; both, human, hepatocytes, pH 7.4
  hepatocyte CLint at 1 μM: 95.9 µL/min/1e6 cells
[3]; male, Sprague-Dawley, rat, hepatocytes, pH 7.4
  hepatocyte CLint at 1 μM: 448 µL/min/1e6 cells
[4]; male, Beagle, dog, hepatocytes, pH 7.4
  half-life at 1 μM: 6.5 min
[12]
  Half-Life: 1.71 min
  microsomal CLint: 809 µL/min/mg
[13]
  Half-Life: 37.7 min
  microsomal CLint: 36.8 µL/min/mg
[14]
  Half-Life: 29.2 min
  microsomal CLint: 47.5 µL/min/mg

## CCCCC[C@H](O)CC[C@@H]1[C@H]2Cc3cccc(OCC(=O)OCC)c3C[C@H]2C[C@H]1O [Treprostinil ethyl ester]
[5]
  Activity, IP Relative to Tre: 35x
[6]
  Activity, EP2 Relative to Tre: 11x
[7]
  Activity, DP1 Relative to Tre: 18x
PGE2 receptor 1 (EP1)
  Activity, EP1 Relative to Tre: 30x
